“Also recorded” adds a separate entry of the source.
Assays:
[1] = system: Mycobacterium tuberculosis mc^26206 (WT); assay type: cell-based
[2] = system: Mtb-infected human THP-1 macrophages; assay type: cell-based, Mycobacterium tuberculosis
[3] = system: Mtb strain mc^26206 wild-type, hypoxic non-replicating; assay type: cell-based, Mycobacterium tuberculosis
[4] = system: panel of bacteria consisting of S. aureus, E. faecium, E. coli, K. pneumoniae, A. baumannii and P. aeruginosa; assay type: cell-based

| Compound | anti-tuberculosis activity against wild type Mtb (in words) [1] | intracellular anti-tuberculosis activity (in words) [2] | other results |
| --- | --- | --- | --- |
| O=c1ccc2nc3ccc(OCc4ccccc4)cc3oc-2c1 [Compound 6g, 7‐(Benzyloxy)‐3H‐phenoxazin‐3‐one] | no anti‐tuberculosis activity | – | – |
| COCOc1ccc2nc3ccc(=O)c(I)c-3oc2c1 [Compound 8h, 4‐Iodo‐7‐(methoxymethoxy)‐3H‐phenoxazin‐3‐one] | – | intracellular TB killing | – |
| COc1ccc2nc3ccc(=O)cc-3oc2c1 [Compound 6j, 7‐Methoxy‐3H‐phenoxazin‐3‐one] | – | – | time-kill kinetic assay under hypoxia (in words) [3]: inactive |
| O=c1ccc2nc3ccc(OCc4ccc([N+](=O)[O-])cc4)cc3oc-2c1 [Compound 6b, 7‐((4‐Nitrobenzyl)oxy)‐3H‐phenoxazin‐3‐one] | no anti‐tuberculosis activity | – | MIC90 Mtb WT [1]: >256 µM |
| O=c1ccc2nc3ccc(OCCO)cc3oc-2c1 [Compound 6s, 7‐(2‐Hydroxyethoxy)‐3H‐phenoxazin‐3‐one] | completely inactive | – | – |
| COCCOc1ccc2nc3ccc(=O)cc-3oc2c1 [Compound 6i, 7‐(2‐Methoxyethoxy)‐3H‐phenoxazin‐3‐one] | – | intracellular TB killing | intracellular Mtb survival [2]: approximately 10% |
| O=c1ccc2nc3ccc(OCc4ccc([N+](=O)[O-])o4)cc3oc-2c1 [Compound 1, 7‐((5‐Nitrofuran‐2‐yl)methoxy)‐3H‐phenoxazin‐3‐one] | – | intracellular TB killing | activity against a panel of bacteria (in words) [4]: inactive; time-kill kinetic assay under hypoxia (in words) [3]: inactive |
| O=c1ccc2nc3ccc(O)cc3oc-2c1 [Compound 2, resorufin, reference compound] | no anti‐tuberculosis activity; also recorded: inactive | – | activity against a panel of bacteria (in words) [4]: inactive |
| O=c1ccc2nc3ccc(OCC4(CO)COC4)cc3oc-2c1 [Compound 6y, 7‐((3‐(Hydroxymethyl)oxetan‐3‐yl)methoxy)‐3H‐phenoxazin‐3‐one] | completely inactive | – | – |
